Measured values: patent US4315005A, “Cephalosporin antibiotics” (Glaxo Group Limited, priority 1979, dated 1982)

How the values were obtained:
[1] = tested on: strains of Staphylococcus aureus; experiment: antibacterial activity against Staphylococcus aureus; type: cell-based
[2] = distribution in the bodies of small rodents; type: in vivo
[3] = tested on: strains of Pseudomonas organisms, e.g. strains of Pseudomonas aeruginosa; experiment: antibacterial activity against Pseudomonas strains; type: cell-based
[4] = effect of human serum on antibacterial properties; type: cell-based
gram-negative bacteria = experiment: experimental infections in mice with gram-negative bacteria; type: in vivo
[5] = tested on: wide range of commonly encountered pathogenic organisms; experiment: broad spectrum antibiotic activity; type: cell-based
[6] = serum half-life in primates; type: in vivo; conditions: extrapolated to man
[7] = administration of 500 mg/kg to mice (lethality); type: in vivo; conditions: for deaths: 500 mg/kg; for LD50: mouse, in vivo
[8] = effect of increased inocula; type: cell-based
[9] = tested on: strains of Pseudomonas aeruginosa; experiment: protection of mice against strains of Pseudomonas aeruginosa; type: in vivo; conditions: for protection compared with treatment with an aminoglycoside such as amikacin: vs amikacin

**Q.** Which results are given for NC(=O)C[n+]1ccc(SCC2=C(C(=O)[O-])N3C(=O)[C@@H](NC(=O)/C(=N\OC4(C(=O)O)CCC4)c4csc(N)n4)[C@H]3SC2)cc1 [(6R,7R)-7-[(Z)-2-(2-Aminothiazol-4-yl)-2-(1-carboxycyclobut-1-oxyimino)acetamido]-3-[(1-carbamoylmethylpyridinium-4-yl)thiomethyl]ceph-3-em-4-carboxylate]?
**A.** activity against strains of Staphylococcus aureus [1]: useful activity; distribution in the body [2]: well distributed; therapeutic levels after subcutaneous injection [2]: useful therapeutic levels; activity against strains of Pseudomonas [3]: excellent activity; antibacterial properties in human serum [4]: generally are not impaired by human serum; treatment of experimental infections with gram-negative bacteria (gram-negative bacteria): successfully treated; general antibiotic properties [5]: to an outstanding extent; probable half-life in man from serum half-life in primates [6]: comparatively long half-life in man; deaths [7]: did not cause any deaths; LD50 [7]: > 500 mg/kg; effect of increased inocula against the compounds [8]: low; protection against strains of Pseudomonas aeruginosa [9]: good protection; protection compared with treatment with an aminoglycoside such as amikacin [9]: comparable with the treatment with an aminoglycoside such as amikacin

**Q.** Which “activity against strains of Staphylococcus aureus” value [1] does the source give for CC(C)(O/N=C(\C(=O)N[C@@H]1C(=O)N2C(C(=O)[O-])=C(CSc3cc[n+](CC(N)=O)cc3)CS[C@H]12)c1csc(N)n1)C(=O)O [(6R,7R)-7-[(Z)-2-(2-Aminothiazol-4-yl)-2-(2-carboxyprop-2-oxyimino)acetamido] -3-[(1-carbamoylmethylpyridinium-4-yl)thiomethyl]ceph-3-em-4-carboxylate] here?
**A.** Its value is “useful activity”.

**Q.** What about the “distribution in the body” value [2] of the same compound?
**A.** Its value is “well distributed”.

**Q.** And the “therapeutic levels after subcutaneous injection” value [2]?
**A.** The value was “useful therapeutic levels”.

**Q.** And the “activity against strains of Pseudomonas” value [3]?
**A.** Its value is “excellent activity”.

**Q.** What about the “antibacterial properties in human serum” value [4] of the same compound?
**A.** Its value is “generally are not impaired by human serum”.

**Q.** What about the “treatment of experimental infections with gram-negative bacteria” value (gram-negative bacteria) of the same compound?
**A.** The value was “successfully treated”.

**Q.** And the general antibiotic properties [5]?
**A.** The general antibiotic properties was “to an outstanding extent”.

**Q.** What about the “probable half-life in man from serum half-life in primates” value [6] of the same compound?
**A.** Its value is “comparatively long half-life in man”.

**Q.** What about the deaths [7] of the same compound?
**A.** Its deaths is “did not cause any deaths”.

**Q.** And the LD50 [7]?
**A.** The LD50 was greater than 500 mg/kg.

**Q.** And the “effect of increased inocula against the compounds” value [8]?
**A.** Its value is “low”.

**Q.** And the “protection against strains of Pseudomonas aeruginosa” value [9]?
**A.** The value was “good protection”.

**Q.** What about the “protection compared with treatment with an aminoglycoside such as amikacin” value [9] of the same compound?
**A.** The value was “comparable with the treatment with an aminoglycoside such as amikacin”.
